Entries after “also recorded” stand apart in the source; their conditions may differ.
What was measured:
[1] = test system: Ehrlich Ascites Tumor (EAT); experiment: Anti tumor activity on solid Ehrlich Ascites Tumor (EAT) bearing mice; format: in vivo; details: for % Tumor growth inhibition / Tumor Weight (mg) Mean ± SE: day 13; for mortality of test animals: EAT bearing mice
From the text: (§1) Non-inbred swiss albino mice from an in-house colony were used in the present study. The breeding and experimental animals were housed in standard size polycarbonate cages providing internationally recommended space for each animal. Animals were fed balanced mice feed supplied by MIs Ashirwad Industries, Chandigarh (India) and autoclaved water was available ad libitum. Animals were cared as per the guide for the care and use of laboratory animals (1996), ILAR, Washington D.C. They were housed in controlled conditions of temperature (23±2° C.), humidity (50-60%) and 12:12 hrs of light: dark cycle. The study and the number of animals used were approved by the institutional animal ethics committee, IIIM, Jammu, India. The study was conducted as per the protocols of National Cancer Institute (NCl), USA (Geran et al., 1972).
Parthenin and its derivative Compound-17 were evaluated against solid Ehrlich Ascites Tumor (EAT) models at different doses. A standard procedure for experiment was as followed:
Animals of the same sex weighing 20±3 g were injected 1×10^7 cells collected from the peritoneal cavity of non-inbred swiss mice, bearing 8-10 days old tumor cells, into the right thigh, intramuscularly (on Day 1). On next day animals were randomized and divided into test groups (7 animals in each test group) and one tumor control group (10 animals). Test groups were treated with different doses of Parthenin (10 mg/kg, 25 mg/kg and 50 mg/kg) and its derivative Compound-17 (10 mg/kg, 25 mg/kg and 50 mg/kg, 100 mg/kg and 200 mg/kg) suspension in 1% gum acacia in, their respective group intraperitonealy for nine consecutive days. Another test group was administered 5-FU @ 22 mg/kg i.p and served as positive control. The tumor contra group was similarly administered normal saline (0.2 ml i.p). The percent tumor growth-inhibition was measured on day 13 with respect to their tumor weight (Geran et al., 1972): Shortest and longest diameters of the tumor mass were measured with the help of vernier caliper and tumor weight (mg) was calculated by using following formula Tumor weight (mg)=Length (mm)×(Width (mm)^2/2 The average tumor weight for each group was calculated and the percent tumor growth inhibition in treated groups was calculated as follows: % Tumor Growth Inhibition=100×(Average tumor weight of control group−Average tumor weight of test group)/Average tumor weight of control group Anti Tumor Activity of Parthenin and its Derivative Compound-17 on Ehrlich Ascites Carcinoma (EAC)

[2] = test system: Ehrlich Ascites Carcinoma (EAC); experiment: Anti tumor activity on Ehrlich Ascites Carcinoma (EAC) bearing mice; format: in vivo; details: for % Tumor growth inhibition / Ascitic fluid volume (ml) Mean ± SE / Tumor cells in ascitic fluid (×10^7) Mean ± SE: day 12; for mortality of test animals: EAC bearing mice
From the text: as §1
Ehrlich Ascites Carcinoma (EAC) was propagated by transplanting 1×10^7 cells from an animal bearing 8-10 days old Ehrlich Ascites Carcinoma, into the peritoneal cavity of non-inbreed swiss mice. For testing, mice of the same sex weighing 20 ±3 g bearing ascites tumor were selected. 1×10^7 cells obtained from an animal bearing 8-10 days old ascites tumor were injected into peritoneal cavity of all animals used for testing (0 Day). On next day animals were randomized and divided into test groups (7 animals in each test group) and one tumor control group (10 animals). Test groups were treated with different doses of Parthenin (10 mg/kg, 25 mg/kg and 50 mg/kg) and its derivative Compound-17 (10 mg/kg, 25 mg/kg and 50 mg/kg, 100 mg/kg and 200 mg/kg) suspension in 1% gum acacia in their respective group intraperitonealy for nine consecutive days. Another test group was administered 5 FU @ 20 mg/kg i.p and served as positive control. The tumor control group was similarly administered normal saline (0.2 ml i.p). The percent tumor growth inhibition were measured on day 12 with respect to volume of ascitic fluid and the number of tumor cells in the ascitic fluid of peritoneal cavity (Geran et al., 1972; Singh et al., 2007).
The percent tumor growth inhibition was calculated as follow. % growth inhibition=100×(Average no. of cells in control group−Average no. of cells in test group)/Average no. of cells in control group Results: […]

SW-620 = experiment: In vitro cytotoxicity screening (sulphodamine B dye), SW-620; format: cell-based; details: Homo sapiens; SW-620 colon cancer cell line
Method: (§2) Cells at sub confluent stage were harvested from the flask by treatment with trypsin (0.5% in PBS containing 0.02% EDTA) for determination of cytotoxicity. […] The cell suspensions of required cell density were prepared in complete growth medium with gentamycin (50 μg/ml) for determination of cytotoxicity. The cells (100 μl/well) were inoculated in 96 well tissue culture plates. The cells were allowed to grow for 24 hrs temperature of 37° C. and in a humidified atmosphere of 5% CO2 in air. Stock solution of (20 mM) of test material was prepared in DMSO. The stock solution was serially diluted with complete growth medium containing 50 μg/ml of gentamycin to obtain […] working test solutions of 1., 2, 5, 10, 50 and 100 μM.
(§3) The media were supplemented with FCS (10%), penicillin (100 Units/ml), streptomycin (100 μg/ml) and glutamine (2 mM) and cells were grown in CO2 incubator (Hera cell, Heraeus, USA) at 37° C. with 90% humidity and 5% CO2.

DU-145 = experiment: In vitro cytotoxicity screening (sulphodamine B dye), DU-145; format: cell-based; details: Homo sapiens; DU-145 prostate cancer cell line
Method: as §2, §3

PC-3 = experiment: In vitro cytotoxicity screening (sulphodamine B dye), PC-3; format: cell-based; details: Homo sapiens; PC-3 prostate cancer cell line
Method: as §2, §3

## O=c1[nH]cc(F)c(=O)[nH]1 [Compound 5-FU, 5-Fluorouracil, reference compound]
[1]; 22 mg/kg i.p.
  % Tumor growth inhibition: 51.28%
  Tumor Weight (mg) Mean ± SE: 832.28 ± 35.21 mg
[2]; 20 mg/kg i.p.
  % Tumor growth inhibition: 100%
  Ascitic fluid volume (ml) Mean ± SE: 0 mL
  Tumor cells in ascitic fluid (×10^7) Mean ± SE: 0 ×10^7

## COc1ccccc1C1CC2(ON1c1ccccc1)C(=O)O[C@@H]1[C@H]2CC[C@H](C)[C@]2(O)C=CC(=O)[C@@]12C (some centres unmarked) [Compound -33]
SW-620
  IC50: 53 µM
DU-145
  IC50: 91 µM
other
  melting point: 111 °C
PC-3
  IC50: 81 µM

## C[C@H]1CC[C@@H]2[C@@H](OC(=O)C23CN3c2ccccc2)[C@]2(C)C(=O)C=C[C@@]12O (some centres unmarked) [Compound -34]
SW-620
  IC50: 87.7 µM
DU-145
  IC50: 31.4 µM
other
  melting point: 245 to 247 °C
PC-3
  IC50: 10.6 µM

## C[C@H]1CC[C@@H]2[C@@H](OC(=O)C23CN3c2ccccc2[N+](=O)[O-])[C@]2(C)C(=O)C=C[C@]12O (some centres unmarked) [Compound -39]
SW-620
  IC50: 33 µM
DU-145
  IC50: 28 µM
other
  melting point: 222 to 224 °C
PC-3
  IC50: 10 µM

## C=C1C(=O)O[C@@H]2[C@H]1CC[C@H](C)[C@]1(O)C=CC(=O)[C@@]21C [Parthenin]
[1]; 10 mg/kg i.p., nine days
  % Tumor growth inhibition: 9.69%
  Tumor Weight (mg) Mean ± SE: 1542.86 ± 35.24 mg
[1]; 25 mg/kg i.p.
  mortality of test animals: mortality of all the animals; also recorded: All animals died by 4th day
[1]; 50 mg/kg i.p.
  mortality of test animals: mortality of all the animals; also recorded: All animals died by 2nd day
SW-620
  IC50: 38.7 µM
DU-145
  IC50: 31.1 µM
[2]; 10 mg/kg i.p., nine days
  % Tumor growth inhibition: 12.01%
  Ascitic fluid volume (ml) Mean ± SE: 3.92 ± 0.38 mL
  Tumor cells in ascitic fluid (×10^7) Mean ± SE: 74.71 ± 2.77 ×10^7
[2]; 25 mg/kg i.p.
  mortality of test animals: mortality of all the test animals; also recorded: All animals died by 4th day
[2]; 50 mg/kg i.p.
  mortality of test animals: mortality of all the test animals; also recorded: All animals died by 2nd day
PC-3
  IC50: 40.3 µM

— US8609858B2, “Spiro derivatives of parthenin as novel anticancer agents” (Council of Scientific & Industrial Research, priority 2008, dated 2013)
